Results taken from patent publication US20050112573A1, “Method of detecting toxic substance” (priority 2001, published 2005).

System: yeast genes (level of expressed mRNA)
Experiment: DNA chip analysis of expressed mRNA of yeast genes after 2 h culture with a toxic chemical substance
Assay type: cell-based, Saccharomyces cerevisiae S288C
Procedure: Yeast (Saccharomyces cerevtisiae S288C (α SUC2mal mel gap2 CUP1)) were cultured at 25° C. on YPD medium (yeast extract 1%, polypepton 2%, glucose 2%). One of toxic chemical substances was added to the cell at logarithmic growth phase, and the cell was further cultured for two hours. Cell was cultured without any chemical substance in the same condition, and was used as control. Concentrations of the chemical substances were defined to inhibit the growth of the yeast but not lead to death.
After the completion of cultivation, the culture was centrifuged to collect the cells. To the cells, sodium acetate buffer (50 mM sodium acetate, 10 mM EDTA, 1% SDS) was added, and the mixture was shaken at 65° C. for five minutes, followed by returning to room temperature, and obtaining the supernatant, which procedure was repeated two times. To the supernatant, ½ amount of a solution of phenol/chloroform was added, and the mixture was centrifuged to give a supernatant, which was added with an equal amount of chloroform, and the mixture was centrifuged to give a supernatant. To the supernatant, an equal amount of isopropanol containing 0.3 M sodium acetate was added, and the mixture was allowed to stand at room temperature for 30 minutes, after which the mixture was centrifuged to give a sediment of the whole RNAs. Seventy % ethanol was added to the sediment, and the mixture was again centrifuged to give a sediment, which was then dried and dissolved in water. mRNA was isolated from the whole RNAs as followings. In view of the fact that a poly A chain is attached to the 3′ terminus of mRNA, a polynucleotide having a poly T structure which was immobilized on the surface of latex beads was used to trap the mRNA, and then the mRNA was washed and eluted with spine column (Oligotex-dT30<Super>mRNA Purification Kit, Takara). Reverse transcription of the mRNA was conducted with a reverse transcriptase (Super Script II Reverse Transcriptase; catalogue No. 18064-014, GibcoBRL) using fluorescence-labeled nucleotides to give cDNAs that were introduced with Cy3-dUTP or Cy5-dUTP during the reverse transcription.
The labeled cDNAs were dissolved in TE buffer (10 mM Tris-HCl/1 mM EDTA, pH8.0), and the solution was dropped on the DNA chip containing the whole genes of yeast (DNA Chip Research Inc. Japan) so that the cDNAs were hybridized on the DNA chip at 65° C. for over 12 hours. The fluoresces intensity of the DNA chip was read with a scanner, and the ratio relative to the fluorescence intensity resulting from the absence of chemical substance was estimated as the following, which is shown in Tables 1 to 9: [formula]
In the Tables, “Intensity” indicated in the rightmost column is a value of the level of expressed mRNA of each gene in control cells as divided by the average level of the expressions of the whole genes.

## COc1cc(CNC(=O)CCCCC=CC(C)C)ccc1O [(12), 8-methyl-N-vanillyl-6-nonenamide]
Gene YDR133C
  The level of expressed mRNA in the presence of chemical substance/absence: YDR133C: 0.3
Gene YDR140W
  The level of expressed mRNA in the presence of chemical substance/absence: YDR140W: 1.1
Gene YDR221W
  The level of expressed mRNA in the presence of chemical substance/absence: YDR221W: 0.6
Gene YDR250C
  The level of expressed mRNA in the presence of chemical substance/absence: YDR250C: 0.8
Gene YDR271C
  The level of expressed mRNA in the presence of chemical substance/absence: YDR271C: 0.7
Gene YDR278C
  The level of expressed mRNA in the presence of chemical substance/absence: YDR278C: 0.6
Gene YDR281C
  The level of expressed mRNA in the presence of chemical substance/absence: YDR281C: 0.9
Gene YDR316W
  The level of expressed mRNA in the presence of chemical substance/absence: YDR316W: 0.6
Gene YDR338C
  The level of expressed mRNA in the presence of chemical substance/absence: YDR338C: 0.8
Gene YDR366C
  The level of expressed mRNA in the presence of chemical substance/absence: YDR366C: 0.6
Gene YDR380W
  level of expressed mRNA in the presence of chemical substance/in its absence: 0.4
Gene YDR410C
  level of expressed mRNA in the presence of chemical substance/in its absence: 0.9
Gene YDR421W
  The level of expressed mRNA in the presence of chemical substance/absence: YDR421W: 0.7
Gene YDR425W
  The level of expressed mRNA in the presence of chemical substance/absence: YDR425W: 1.1
Gene YDR485C
  The level of expressed mRNA in the presence of chemical substance/absence: YDR485C: 0.9
Gene YDR487C
  level of expressed mRNA in the presence of chemical substance/in its absence: 1.3
Gene YDR502C
  level of expressed mRNA in the presence of chemical substance/in its absence: 1.3
Gene YDR504C
  The level of expressed mRNA in the presence of chemical substance/absence: YDR504C: 0.7
Gene YEL011W
  level of expressed mRNA in the presence of chemical substance/in its absence: 1.5
Gene YEL020C
  level of expressed mRNA in the presence of chemical substance/in its absence: 0.8
Gene YEL044W
  The level of expressed mRNA in the presence of chemical substance/absence: YEL044W: 0.6
Gene YER026C
  level of expressed mRNA in the presence of chemical substance/in its absence: 1.7
Gene YER069W
  level of expressed mRNA in the presence of chemical substance/in its absence: 0.8
Gene YER092W
  The level of expressed mRNA in the presence of chemical substance/absence: YER092W: 0.9
Gene YER182W
  The level of expressed mRNA in the presence of chemical substance/absence: YER182W: 1.0
Gene YFL042C
  The level of expressed mRNA in the presence of chemical substance/absence: YFL042C: 0.9
Gene YFR015C
  level of expressed mRNA in the presence of chemical substance/in its absence: 0.4
Gene YFR026C
  The level of expressed mRNA in the presence of chemical substance/absence: YFR026C: 0.6
Gene YFR056C
  The level of expressed mRNA in the presence of chemical substance/absence: YFR056C: 0.5
Gene YGL001C
  level of expressed mRNA in the presence of chemical substance/in its absence: 0.9
Gene YGL022W
  level of expressed mRNA in the presence of chemical substance/in its absence: 0.7
Gene YGL039W
  level of expressed mRNA in the presence of chemical substance/in its absence: 1.3
Gene YGL041C
  The level of expressed mRNA in the presence of chemical substance/absence: YGL041C: 0.6
Gene YGL045W
  The level of expressed mRNA in the presence of chemical substance/absence: YGL045W: 1.1
Gene YGL057C
  The level of expressed mRNA in the presence of chemical substance/absence: YGL057C: 1.1
Gene YGL088W
  The level of expressed mRNA in the presence of chemical substance/absence: YGL088W: 0.6
Gene YGL104C
  level of expressed mRNA in the presence of chemical substance/in its absence: 1.1
Gene YGL126W
  level of expressed mRNA in the presence of chemical substance/in its absence: 0.6
Gene YGL134W
  level of expressed mRNA in the presence of chemical substance/in its absence: 0.9
Gene YGL154C
  level of expressed mRNA in the presence of chemical substance/in its absence: 0.9
Gene YGL183C
  The level of expressed mRNA in the presence of chemical substance/absence: YGL183C: 0.9
Gene YGL209W
  level of expressed mRNA in the presence of chemical substance/in its absence: 1.3
Gene YGL223C
  The level of expressed mRNA in the presence of chemical substance/absence: YGL223C: 0.9
Gene YGL253W
  level of expressed mRNA in the presence of chemical substance/in its absence: 1.2
Gene YGR038W
  The level of expressed mRNA in the presence of chemical substance/absence: YGR038W: 1.0
Gene YGR060W
  level of expressed mRNA in the presence of chemical substance/in its absence: 1.0
Gene YGR139W
  The level of expressed mRNA in the presence of chemical substance/absence: YGR139W: 0.5
Gene YGR156W
  The level of expressed mRNA in the presence of chemical substance/absence: YGR156W: 1.2
Gene YGR198W
  The level of expressed mRNA in the presence of chemical substance/absence: YGR198W: 0.7
Gene YGR210C
  The level of expressed mRNA in the presence of chemical substance/absence: YGR210C: 0.6
Gene YGR211W
  The level of expressed mRNA in the presence of chemical substance/absence: YGR211W: 0.6
Gene YGR237C
  The level of expressed mRNA in the presence of chemical substance/absence: YGR237C: 0.8
Gene YGR243W
  The level of expressed mRNA in the presence of chemical substance/absence: YGR243W: 1.2
Gene YGR250C
  The level of expressed mRNA in the presence of chemical substance/absence: YGR250C: 0.6
Gene YGR266W
  The level of expressed mRNA in the presence of chemical substance/absence: YGR266W: 0.6
Gene YGR277C
  The level of expressed mRNA in the presence of chemical substance/absence: YGR277C: 0.9
Gene YGR282C
  level of expressed mRNA in the presence of chemical substance/in its absence: 1.3
Gene YGR293C
  The level of expressed mRNA in the presence of chemical substance/absence: YGR293C: 1.0
